IC50 data for 1 molecule are collected here from patent US10195181B2, “Carboxamide derivatives” (Novartis AG, priority 2014, dated 2019).

The experiment has as its target Smurf-1 (Homo sapiens (Human), UniProt Q9HCE7). The experiment is described as follows: HECT E3 ligase autoubiquitinylation TR-FRET assay (Smurf-1). It is filed as biochemical. The source says:
To determine the HECT E3 ligase selectivity of the compounds, a panel of biochemical HECT E3 ligase autoubiquitinylation assays was employed (Smurf-1, Smurf-2, WWP1, WWP2, ITCH, Nedd4, Nedd4L and E6AP). The conjugation of ubiquitin to a protein substrate is a multistep process. In an initial ATP-requiring step, a thioester bond is formed between the carboxyl terminus of ubiquitin and an internal cystein residue of the ubiquitin-activating enzyme (E1). Activated ubiquitin is then transferred to a specific cystein residue of an ubiquitin-conjugating enzyme (E2). E2s donate ubiquitin to a HECT E3 ligase (E3) from which it is transferred to the substrate protein. HECT E3 ligases can auto-ubiquitinylate. This event is detected in the TR-FRET (Time-Resolved Fluorescence Resonance Energy Transfer) assay used in this panel. […] When these two fluorophores are brought together by a biomolecular interaction (in this case ubiquitinylation of the E3 ligase), a portion of the energy captured by the Cryptate during excitation is released through fluorescence emission at 620 nm, while the remaining energy is transferred to XL665. This energy is then released by XL665 as specific fluorescence at 665 nm. […]
After an incubation time of 45 min in the dark, the plates are transferred into the Pherastar fluorescence reader to measure the TR-FRET signal.

Chain of Smurf-1 (Q9HCE7 whole entry): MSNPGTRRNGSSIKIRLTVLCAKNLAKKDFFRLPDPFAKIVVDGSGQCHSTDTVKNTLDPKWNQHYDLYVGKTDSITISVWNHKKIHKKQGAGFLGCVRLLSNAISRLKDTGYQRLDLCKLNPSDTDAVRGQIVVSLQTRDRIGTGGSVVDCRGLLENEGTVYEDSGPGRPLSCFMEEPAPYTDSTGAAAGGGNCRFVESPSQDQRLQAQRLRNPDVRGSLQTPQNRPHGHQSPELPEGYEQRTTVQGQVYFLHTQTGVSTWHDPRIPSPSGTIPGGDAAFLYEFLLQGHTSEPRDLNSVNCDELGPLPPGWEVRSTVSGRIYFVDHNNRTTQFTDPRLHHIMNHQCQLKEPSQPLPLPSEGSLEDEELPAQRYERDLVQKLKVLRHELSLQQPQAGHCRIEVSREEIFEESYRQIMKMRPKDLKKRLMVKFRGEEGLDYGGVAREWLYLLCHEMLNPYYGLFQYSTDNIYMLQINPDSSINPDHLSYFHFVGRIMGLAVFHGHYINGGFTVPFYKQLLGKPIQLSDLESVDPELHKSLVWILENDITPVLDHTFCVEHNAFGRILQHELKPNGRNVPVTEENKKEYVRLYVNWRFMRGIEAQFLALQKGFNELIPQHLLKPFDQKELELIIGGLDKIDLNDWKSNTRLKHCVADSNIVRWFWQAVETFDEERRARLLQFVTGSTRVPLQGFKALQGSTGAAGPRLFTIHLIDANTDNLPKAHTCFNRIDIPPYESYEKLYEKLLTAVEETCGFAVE

In the case of `Cc1c(C(=O)Nc2c(C)n(C)n(C(C)C)c2=O)noc1[C@@H]1CCC[C@H](C(C)(C)C)O1` (mixture of isomers) [Example 17, 5-((2R,6S)-6-(tert-butyl)tetrahydro-2H-pyran-2-yl)-N-(2-isopropyl-1,5-dimethyl-3-oxo-2,3-dihydro-1H-pyrazol-4-yl)-4-methylisoxazole-3-carboxamide and 5-((2S,6R)-6-(tert-butyl)tetrahydro-2H-pyran-2-yl)-N-(2-isopropyl-1,5-dimethyl-3-oxo-2,3-dihydro-1H-pyrazol-4-yl)-4-methylisoxazole-3-carboxamide], the IC50 turned out to be 980 nM.
